Source: ChEMBL document CHEMBL5370637, “Receptor Interacting Ser/Thr-Protein Kinase 2 as a New Therapeutic Target” (J Med Chem, 2023)

How the values were obtained:
[1] = target: T1, Receptor-interacting serine/threonine-protein kinase 2 (Homo sapiens, UniProt O43353); test: Inhibition of recombinant RIPK2 (unknown origin) expressed in insect cells using RBER-CHKtide as substrate assessed as inhibition of tyrosine autophosphorylation preincubated with compound for 15 mins followed by substrate addition and measured after 30 mins; set-up: species or system Insect cell
T1 sequence (O43353 whole entry): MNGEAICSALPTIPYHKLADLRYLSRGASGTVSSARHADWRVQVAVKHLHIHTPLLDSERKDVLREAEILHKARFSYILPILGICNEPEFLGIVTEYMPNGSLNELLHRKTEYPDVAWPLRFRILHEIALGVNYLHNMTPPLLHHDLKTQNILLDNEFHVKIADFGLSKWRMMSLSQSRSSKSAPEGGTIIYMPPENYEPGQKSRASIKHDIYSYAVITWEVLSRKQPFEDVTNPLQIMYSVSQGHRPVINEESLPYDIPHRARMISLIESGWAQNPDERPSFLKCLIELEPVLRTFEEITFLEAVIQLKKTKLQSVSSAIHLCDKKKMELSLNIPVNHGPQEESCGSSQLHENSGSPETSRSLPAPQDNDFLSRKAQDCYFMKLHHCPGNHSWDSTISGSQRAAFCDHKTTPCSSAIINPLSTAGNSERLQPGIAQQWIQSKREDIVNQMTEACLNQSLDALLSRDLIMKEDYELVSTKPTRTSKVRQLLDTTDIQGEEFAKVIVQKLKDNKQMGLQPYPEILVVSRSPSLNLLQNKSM

[2] = Induction of apoptosis in human GBM1 cells incubated for 48 hrs by immunofluorescent analysis; type: functional, cell-based; conditions: GBM1, 48 h
[3] = target: T1, Receptor-interacting serine/threonine-protein kinase 2
[4] = target: T1, Receptor-interacting serine/threonine-protein kinase 2; test: Inhibition of RIPK2 (unknown origin)
[5] = target: T1, Receptor-interacting serine/threonine-protein kinase 2; test: Inhibition of human RIPK2 assessed as inhibition of autophosphorylation incubated for 45 to 60 mins in presence of 32P-gamma-ATP by immunoprecipitation analysis
[6] = target: T1, Receptor-interacting serine/threonine-protein kinase 2; test: Inhibition of recombinant RIPK2 (unknown origin) using CRRKSLVGTPYWMAPE peptide as substrate assessed as inhibition of autophosphorylation incubated for 90 mins in presence of ATP by Transcreener ADP FP assay; set-up: species or system Insect cell
[7] = Inhibition of RIPK (unknown origin) by KINOMEscan assay; set-up: species or system Homo sapiens
[8] = target: MAP kinase p38 (Homo sapiens, UniProt O15264+Q15759+Q16539+P53778); test: Inhibition of p38 (unknown origin) by KINOMEscan assay; type: protein assay
[9] = target: Epidermal growth factor receptor (Homo sapiens, UniProt P00533); test: Inhibition of EGFR (unknown origin) by KINOMEscan assay
Epidermal growth factor receptor, sequence (P00533 whole entry): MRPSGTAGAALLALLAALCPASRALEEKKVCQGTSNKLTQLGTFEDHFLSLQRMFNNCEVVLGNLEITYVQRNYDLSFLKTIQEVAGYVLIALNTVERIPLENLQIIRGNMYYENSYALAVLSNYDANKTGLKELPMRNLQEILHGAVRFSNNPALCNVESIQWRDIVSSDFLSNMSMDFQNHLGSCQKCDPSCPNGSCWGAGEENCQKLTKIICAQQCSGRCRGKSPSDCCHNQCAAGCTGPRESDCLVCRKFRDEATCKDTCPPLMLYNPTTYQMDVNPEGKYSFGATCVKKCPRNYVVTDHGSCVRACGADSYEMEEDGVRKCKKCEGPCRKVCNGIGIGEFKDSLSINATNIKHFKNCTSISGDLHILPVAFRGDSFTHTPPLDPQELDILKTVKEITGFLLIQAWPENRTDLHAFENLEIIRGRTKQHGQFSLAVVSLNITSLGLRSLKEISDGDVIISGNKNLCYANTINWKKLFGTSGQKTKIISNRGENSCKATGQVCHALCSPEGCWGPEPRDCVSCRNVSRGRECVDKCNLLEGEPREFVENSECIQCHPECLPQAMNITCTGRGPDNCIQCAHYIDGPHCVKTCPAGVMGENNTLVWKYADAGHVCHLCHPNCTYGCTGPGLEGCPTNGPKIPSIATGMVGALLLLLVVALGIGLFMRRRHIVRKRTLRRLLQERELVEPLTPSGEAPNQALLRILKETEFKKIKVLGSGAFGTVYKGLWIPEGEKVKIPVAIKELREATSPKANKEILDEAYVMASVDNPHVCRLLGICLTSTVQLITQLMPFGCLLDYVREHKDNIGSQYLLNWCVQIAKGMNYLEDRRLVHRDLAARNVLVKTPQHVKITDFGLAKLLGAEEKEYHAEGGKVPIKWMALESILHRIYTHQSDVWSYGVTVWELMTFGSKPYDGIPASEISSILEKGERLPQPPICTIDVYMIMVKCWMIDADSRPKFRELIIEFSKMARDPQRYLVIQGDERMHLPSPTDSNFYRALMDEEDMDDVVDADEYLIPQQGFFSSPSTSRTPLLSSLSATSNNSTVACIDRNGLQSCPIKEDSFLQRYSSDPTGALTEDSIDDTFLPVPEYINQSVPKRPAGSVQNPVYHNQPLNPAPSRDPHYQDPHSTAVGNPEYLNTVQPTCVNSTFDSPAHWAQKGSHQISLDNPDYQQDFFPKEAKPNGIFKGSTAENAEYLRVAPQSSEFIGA

With c1cc2cc(n1)NCCOCCNc1ccn3ncc-2c3n1 the IC50 [1] was 14.1 nM.
For Cc1n(Cc2ccc(F)cc2)c2c([n+]1Cc1ccccc1)C(=O)c1ccccc1C2=O, the EC50 [2] was 68 nM.
In the case of O=[N+]([O-])c1ccc(-c2nc(-c3ccncc3)c(-c3ccc(F)cc3)[nH]2)cc1 [PD-169316], the IC50 [3] is reported as 70 nM.
With Clc1cc2cc(c1)-c1cnn3ccc(nc13)NCCOCCO2 the IC50 [1] was 5.3 nM.
Work on Nc1nccc(-c2c(-c3ccc(F)cc3)ncn2C2CCNCC2)n1 [SB-220025] yielded an IC50 [3] of 700 nM.
Compound N=C(N)NCCC[C@@H]1NC(=O)/C(=C/c2c[nH]c3cc(Br)ccc23)NC1=O [BARETTIN] has an IC50 [4] of 8000 nM.
In the case of Cc1ccc(C(=O)Nc2cccc(-c3nccn3C)c2)cc1NC(=O)c1ccccc1, the IC50 [5] is reported as 10 nM.
With Cc1ccc(-c2nn(C(C)(C)CNC(=O)c3ccncc3)c3ncnc(N)c23)cc1 the IC50 [6] was 134 nM, the IC50 [7] was > 10000 nM and the IC50 [8] was > 10000 nM. For the same compound, the IC50 [9] was > 10000 nM.
